Test results: US12485132B2, “GPX4 inhibitors and senolytic compounds and uses thereof” (Rubedo Life Sciences, Inc., priority 2023, dated 2025)

Key:
senescent HEPG2 cells = assay: Senescence assay: viability of senescent HEPG2 cells; type: cell-based; settings: Homo sapiens, 24-72 hours incubation, viability by CellTiter-Glo or XTT, read-out: Absolute IC50 average HEPG2_SEN IC50
Outline: (§1)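 A549 and HEPG2 cells made senescent by sublethal chemotherapy (bleomycin, gemcitabine, doxorubicin or 5-fluorouridine) plus recovery, verified by low EdU and high SA-β-Gal. Ten-point duplicate dosing for 24-72 h; viability by CellTiter-Glo or XTT versus untreated cells; absolute IC50 from four-parameter Hill fit.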

senescent A549 cells = assay: Senescence assay: viability of senescent A549 cells; type: cell-based; settings: Homo sapiens, 24-72 hours incubation, viability by CellTiter-Glo or XTT, read-out: Absolute IC50 average A549_SEN IC50
Outline: as §1

GPX4 = molecular target: T1, GPX4 (Mus musculus, UniProt O70325); assay: Electrophoretic gel mobility shift of GPX4 in skin of treated mice (target engagement); type: in vivo; settings: skin of BALB/c mice exposed to mitomycin C; 24 hr treatment
T1 construct: tissue Charles River Laboratories; host or cells: skin of BALB/c mice
Description: An electrophoretic gel mobility shift assay of GPX4 was applied to determine the level of target engagement of compound 32 as a direct biomarker in tissues. For example, target engagement of compound 32 was assessed in the skin of mice exposed to mitomycin C, a potent inducer of cellular senescence. Following 24 hr treatment with compound 32, the skin of treated BALB/c mice (Charles River Laboratories) was collected and lysed by IGEPAL CA-630 and sodium dodecyl sulfate (SDS) in the presence of a protease inhibitor cocktail (4693132001, Roche) and benzonase (E1014, Sigma-Aldrich). The soluble protein fraction was isolated and heat-denatured in the presence of dithiothreitol (DTT). Proteins were electrophoretically separated using a Bis-Tris protein gel with 12% polyacrylamide concentration. Following the transfer of proteins to a PVDF membrane, the membrane was probed with an anti-GPX4 monoclonal antibody (ab125066, Abcam) and anti-beta-Actin (4970, Cell Signaling Technology), followed by an anti-rabbit IgG HRP conjugated antibody (31460, ThermoFisher). Chemiluminescent following HRP substrate addition (34580, ThermoFisher) was detected by the ChemiDoc XRS+System (BioRad).

A549 cells = assay: Lipid peroxidation assay by flow cytometry (BODIPY 581/591 C11); type: cell-based, human; settings: 0.02, 0.2 and 2 μm, 18.5 hours
Description: Inhibition of the cellular activity of GPX4 can be estimated by changes in lipid peroxidation levels that can be detected by the oxidation of BODIPY 581/591 C11, a ratiometric fluorescent indicator reacting with free radicals produced during membrane peroxidation (Drummen et al., Free Radic Biol Med 2002 33 (4): 473-90; and Martinez et al., Methods Mol Biol 2020 2018:125-130). For a lipid peroxidation assay by flow cytometry, A549 cells were seeded at 333,000 cells per well in 12-well plates. On the following day, culture media was replaced with 1 mL media containing either DMSO or compound 32 (0.02, 0.2 and 2 μm), and cultures were incubated at 37° C. for 18.5 hours. Thirty minutes before the end of the incubation period, 2 μm BODIPY 581/591 C11 (D3861, Invitrogen) was added to cells. Following cell collection by trypsinization, cells were subjected to flow cytometry analysis (BD FACSAria), and gated for the live cell population, which was analyzed for fluorescence signal associated with the oxidized state of BODIPY 581/591 C11. The results are illustrated in FIG. 4.

[1] = tested on: senescent normal human dermal fibroblasts; assay: Rescue of compound-induced cell death by ferrostatin-1 in senescent fibroblasts; type: cell-based; settings: compounds at 1.11 μM, ferrostatin-1 at 0.375 and 6 μM; 24 hours; CellTiter-Glo
Text: Cell death induced by ferroptosis-inducing agents can be characterized by rescuing the cellular response with radical trapping agents that prevent the accumulation of phospholipid hydroperoxides (Stockwell et al., Cell Chem Biol 2020 27 (4): 365-375). As such, ferrostatin-1 was identified as a potent inhibitor of ferroptosis for which a free radical trapping mechanism had been reported (Skouta et al., J Am Chem Soc 2014 136 (12): 4551-6; Zika et al., ACS Cent Sci. 2017 3 (3): 232-243; and Miotto et al., Redox Biol. 2020; 101328). To determine whether compounds 18 and 32 induce ferroptosis in senescent cells, normal human dermal fibroblasts were induced to undergo senescence by treatment with a sublethal concentration of chemotherapy (bleomycin sulfate), followed by a rest period without chemotherapy similarly to previous reports (Aoshiba et al., 2003 3:436-43). Cells were maintained in DMEM media (high glucose, 4 mM L-glutamine, no sodium pyruvate) supplemented with 10% heat-inactivated fetal bovine serum in a humidified incubator at 37° C. with 5% carbon dioxide and 5% oxygen. Cellular senescence was qualified by reduced EdU (5-ethynyl-2′-deoxyuridine) incorporation and increased SA-β-Gal (senescence-associated beta-galactosidase) staining compared to proliferating untreated cells. Senescent fibroblasts were plated into 96-well plates at a density of 10,000 cells per well. The next day, ferrostatin-1 was diluted in cell medium to reach a final concentration of 0.375 and 6 μM and was added to cells. Approximately 30 minutes after the addition of ferrostatin-1, compounds 18 and 32 at 1.11 μM, or the peptidyl transfer inhibitor puromycin at 10 μM were added to cells. Cells were incubated with the compounds for 24 hours, at which point viability was quantified using the CellTiter-Glo assay (Promega). The viability for treated cells was determined relative to untreated control cells.

T1 sequence (O70325 whole entry): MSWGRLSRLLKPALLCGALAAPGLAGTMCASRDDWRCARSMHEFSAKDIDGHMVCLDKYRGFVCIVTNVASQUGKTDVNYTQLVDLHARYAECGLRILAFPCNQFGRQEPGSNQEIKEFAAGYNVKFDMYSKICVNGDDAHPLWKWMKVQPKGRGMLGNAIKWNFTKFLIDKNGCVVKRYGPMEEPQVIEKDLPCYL

C#CC(F)(F)[C@]1(O)CC[C@H]2[C@@H]3CCC4=CC(=NNC(=O)NC5CC5)CCC4=C3[C@H](c3ccc(C4CC4)cc3)C[C@@]21C [Compound 32, N-cyclopropyl-2-((8S,11S,13S,14S,17S)-11-(4-cyclopropylphenyl)-17-(1,1-difluoroprop-2-yn-1-yl)-17-hydroxy-13-methyl-1,2,6,7,8,11,12,13,14,15,16,17-dodecahydro-3H-cyclopenta[a]phenanthren-3-ylidene)hydrazine-1-carboxamide]
IC50 (senescent HEPG2 cells): 0.1 to 10 nM
IC50 (senescent A549 cells): 0.1 to 10 nM
GPX4 band shift in skin (target engagement) (GPX4): slower migrating band for GPX4 was observed
cellular lipid peroxidation (oxidized BODIPY 581/591 C11 signal) (A549 cells): induced markers of cellular lipid peroxidation
inhibition by ferrostatin-1 of compound-induced cell death [1]: potently inhibits cell death induced by compounds 18 and 32
